This is an account of results in patent US20080280837A1, “Biologically Active Compounds with Anti-Angiogenic Properties” (priority 2004, published 2008).

Where only a bound is given, the exact number is not on record here.

In one series the test system is Jurkat cell line. Kind of series: Cell proliferation assay (CellTiter 96 AQueous One) as indicator of toxicity, Jurkat. In kind it is cell-based. To be noted: 100 μM. How it is done:
(§1) A simple cell proliferation assay was used to determine the in vitro cytotoxicity of “compound 1.” Selected cell lines were cultured according to their specific requirements. The optimal cell density required for each cell line was determined. All compounds were tested at a single concentration in triplicate. Cell viability was determined using the CellTiter 96® AQueous One reagent from Promega Corporation.
(§2) Assays are performed by adding the test compound to the cells in culture and incubating the cells for a fixed period. The number of viable cells remaining after the incubation period is determined by adding a small amount of the CellTiter 96® AQueous One Solution Reagent directly to culture wells, incubating for 1-4 hours and then recording absorbance at 490 nm with a 96 well plate reader.
(§3) Controls in the assay include untreated cells, wells without cells and cells treated with know cytotoxic agents. Data is presented as % inhibition of cell proliferation.

Series [1] addresses T1, Human SST5 somatostatin receptor (SSTR5) (Homo sapiens, UniProt P35346).
T1 construct: expressed in transfected cells; host or cells: HEK-293 EBNA
The series is described as follows: Filter plate assay for SST5 receptor, displacement of [125I]SST-14. Type of series: binding. The method, boiled down:
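HEK-293 EBNA membranes expressing human SST5 (5.5 μg) incubated 60 min at 25 °C with 4 nM [125I]SST-14 and compound in pH 7.5 Tris/EGTA/MgCl2/sucrose buffer. Bound radioactivity collected on PEI-coated glass fiber filters and counted; triplicate 1:5 dilution series from 125 μM, non-specific binding with excess cold ligand.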

The test system of series [2] is Human Umbilical Vein Endothelial Cells (HUVEC). Kind of series: Endothelial cell proliferation assay (MTS). Type of series: cell-based. The note with it: 48 hrs. On the procedure: Human Umbilical Vein Endothelial Cells (HUVEC from Clonetics) were plated in 96 well plates at 1000 cell per well in EGM-2 medium (Clonetics). Cells were grown overnight at 37° C. in 5% CO2. Fresh EGM-2 medium containing compound at the desired concentration was added to the wells and the cells allowed to grow for a further 48 hrs. A MTS (Promega) colorimetric assay was performed after 48 hrs to determine cell growth according to the manufacturers instructions. Results are presented in terms of percentage growth.

The target of another series is T2, SSTR-2 (Homo sapiens, UniProt P30874).
T2 construct: expressed in transfected cells
The series is described as follows: Radioligand binding screen against somatostatin subtype SSTR-2. On the procedure:
(§4) Receptor membrane preparations containing the desired cloned receptor (for example cloned human somatostatin receptor subtype 5, SSTR5) and radio-labeled ligand (for example 3-[^125I]iodotyrosyl^11 Somatostatin-14)) were diluted at the concentration required for testing and according to the specific parameters associated with the selected receptor-ligand combination, including receptor Bmax, ligand Kd and any other parameters necessary to optimize the experimental conditions. When tested for competition activity to the reference ligand, “compound 1” was mixed with membrane suspension and the radiolabeled reference ligand (with or without an excess of cold ligand to the receptor for determination of non-specific binding) and incubated at the temperature required by internal standard operating procedures. Following incubation, the binding reaction was stopped by the addition of ice-cold washing buffer and filtered on appropriate filters, which are then counted. Data analysis and curve-fitting was performed with XLfit (IDBS).
(§5) 10 mM solutions of test compounds in 100% DMSO were prepared. ˜160 μl was used for each dilution (20 μl/well in triplicate).
(§6) A 1.25 mM assay stock was prepared by making a 1:8 dilution of the 10 mM solution. (To 30 μL of the 10 mM solution was added 210 μL milli-Q H2O. A 1:5 dilution series in milli-Q H2O was then prepared.
(§7) In primary screening experiments compounds were tested in duplicate for a particular concentration.

The test system of another series is 3T3 cell line. The series is described as follows: Cell proliferation assay (CellTiter 96 AQueous One) as indicator of toxicity, 3T3. The note with it: 3T3, 100 μM. Type of series: cell-based. On the procedure:
as §1, §2, §3

A further series concerns the target T3, SSTR-1 (Homo sapiens, UniProt P30872).
T3 construct: expressed in transfected cells
Kind of series: Radioligand binding screen against somatostatin subtype SSTR-1. To be noted: concentration required to displace 50% of the competitive radioligand; read-out: IC50 SSTR1. How it is done: as §4, §5, §6, §7

The target of another series is T4, SSTR-3 (Homo sapiens, UniProt P32745).
T4 construct: expressed in transfected cells
The series is described as follows: Radioligand binding screen against somatostatin subtype SSTR-3. On the procedure: as §4, §5, §6, §7

Series [3] can be described thus: Solubility of salts of compound 1. In kind it is physicochemical. To be noted: Water, overnight; listed as Free Base (Compound 1).
[4] abbreviates: normalized IC50: lowest IC50 for a compound = 1.

As usually defined, the IC50 is the concentration that inhibits the measured activity by half.

T1 sequence (P35346 whole entry): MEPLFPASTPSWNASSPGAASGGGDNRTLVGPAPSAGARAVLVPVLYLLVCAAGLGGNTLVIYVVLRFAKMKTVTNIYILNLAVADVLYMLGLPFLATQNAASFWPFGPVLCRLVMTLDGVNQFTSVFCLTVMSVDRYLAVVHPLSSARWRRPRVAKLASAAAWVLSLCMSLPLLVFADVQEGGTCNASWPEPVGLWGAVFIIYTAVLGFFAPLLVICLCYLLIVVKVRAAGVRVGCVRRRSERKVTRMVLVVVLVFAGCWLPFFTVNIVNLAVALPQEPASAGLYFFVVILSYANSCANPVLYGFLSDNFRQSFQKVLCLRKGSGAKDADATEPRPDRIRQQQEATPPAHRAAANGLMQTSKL
T2 sequence (P30874 whole entry): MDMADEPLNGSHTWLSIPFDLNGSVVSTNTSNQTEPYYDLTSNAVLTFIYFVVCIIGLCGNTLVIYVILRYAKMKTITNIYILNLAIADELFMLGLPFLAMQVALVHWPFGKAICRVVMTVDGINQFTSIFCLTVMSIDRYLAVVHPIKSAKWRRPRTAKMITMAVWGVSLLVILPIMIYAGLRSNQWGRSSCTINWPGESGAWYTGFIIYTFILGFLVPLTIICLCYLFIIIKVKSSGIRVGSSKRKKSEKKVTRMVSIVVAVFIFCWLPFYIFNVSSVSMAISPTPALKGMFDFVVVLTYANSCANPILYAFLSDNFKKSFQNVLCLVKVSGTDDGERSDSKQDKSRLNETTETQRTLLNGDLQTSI
T4 sequence (P32745 whole entry): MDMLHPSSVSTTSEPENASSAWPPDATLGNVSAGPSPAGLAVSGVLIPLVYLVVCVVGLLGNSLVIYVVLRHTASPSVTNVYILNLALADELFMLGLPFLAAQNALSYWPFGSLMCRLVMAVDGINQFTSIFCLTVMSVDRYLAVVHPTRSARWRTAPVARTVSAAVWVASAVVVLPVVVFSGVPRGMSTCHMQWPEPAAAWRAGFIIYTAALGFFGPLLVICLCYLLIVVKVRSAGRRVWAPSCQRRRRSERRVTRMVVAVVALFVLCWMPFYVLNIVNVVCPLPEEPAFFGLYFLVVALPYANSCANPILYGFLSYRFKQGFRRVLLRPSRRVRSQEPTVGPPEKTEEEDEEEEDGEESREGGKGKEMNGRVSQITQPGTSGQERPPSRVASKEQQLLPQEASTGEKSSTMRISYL
T3 sequence (P30872 whole entry, species assumed): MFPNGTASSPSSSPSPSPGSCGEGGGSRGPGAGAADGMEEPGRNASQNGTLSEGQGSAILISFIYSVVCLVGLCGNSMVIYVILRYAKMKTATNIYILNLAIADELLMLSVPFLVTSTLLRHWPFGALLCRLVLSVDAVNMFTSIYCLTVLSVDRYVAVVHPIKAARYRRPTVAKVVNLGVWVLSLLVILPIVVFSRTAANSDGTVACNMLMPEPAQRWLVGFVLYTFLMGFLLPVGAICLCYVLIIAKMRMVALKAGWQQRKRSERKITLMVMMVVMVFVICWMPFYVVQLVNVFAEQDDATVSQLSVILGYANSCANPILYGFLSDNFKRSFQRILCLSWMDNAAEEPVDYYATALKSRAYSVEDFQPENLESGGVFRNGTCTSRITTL

For `COC[C@H]1O[C@H](OCCc2ccccc2)[C@H](NC(=O)CCCN)[C@@H](OCc2ccc3ccccc3c2)[C@@H]1O` [Compound 1], the “Inhibition of cell proliferation” value in the series with Jurkat cell line and in the series on 3T3 cell line was “no inhibitory effect” each time. Further, the IC50 in series [1] (concentration required to displace 50% of the competitive radioligand, read-out: IC50 SSTR5) was 0.322 µM; at SSTR-2 (concentration required to displace 50% of the competitive radioligand, read-out: IC50 SSTR2) it was 7.5 µM; on SSTR-1, over 12.5 µM; on SSTR-3 (concentration required to displace 50% of the competitive radioligand, read-out: IC50 SSTR3) it was 8.5 µM. Besides, the “selectivity SSTR5” value in series [1] (setting [4]) worked out at 1. The “Hillslope SSTR5” value in series [1] (slope of binding curve) stood at 0.71. The Percent cell growth at 125 µM in series [2] (125 uM) was 69%. This compound displayed a Percent cell growth at 250 µM in series [2] (250 uM) of 17%. At SSTR-2 (setting [4]), the “selectivity SSTR2” value is on record as 23.2. The “Hillslope SSTR2” value on SSTR-2 (slope of binding curve) amounted to 1.2. Also, the “selectivity SSTR3” value at SSTR-3 (setting [4]) is reported as 26.4. Moreover, the “Hillslope SSTR3” value on SSTR-3 (slope of binding curve) came out at 1.04. Moreover, the “Solubility in Water” value in series [3] is over 200 µg/mL.
